Experimental data: patent US20250032451A1, “MICROSPHERE FORMULATIONS COMPRISING ASENAPINE AND METHODS FOR MAKING AND USING THE SAME” (Oakwood Laboratories, LLC, priority 2021, published 2025)
Structures can show the parent of a compound that is named as a salt. Where two headings read alike, the source gives them in different places.

Key:
pKa of asenapine maleate = format: physicochemical
[1] = Solubility of asenapine maleate in water and solvents; format: physicochemical

## CN1C[C@@H]2c3ccccc3Oc3ccc(Cl)cc3[C@H]2C1 (racemic) [asenapine maleate]
pKa of asenapine maleate
  pKa: 8.64
[1]; N-methylpyrrolidone, organic solvent or mixture, NMP, read-out: N-methylpyrrolidone (NMP) solubility
  solubility: 700 mg/mL
[1]; benzyl alcohol, organic solvent or mixture, BA, read-out: benzyl alcohol (BA) solubility
  solubility: 500 mg/mL
[1]; dichloromethane, organic solvent or mixture, DCM, read-out: dichloromethane (DCM) solubility
  solubility: 324 mg/mL
[1]; dimethyl sulfoxide, organic solvent or mixture, DMSO, read-out: dimethyl sulfoxide (DMSO) solubility
  solubility: 700 mg/mL
[1]; ethanol, organic solvent or mixture, EtOH, read-out: ethanol (EtOH) solubility
  solubility: 100 mg/mL
[1]; ethyl acetate, organic solvent or mixture, EA, read-out: ethyl acetate (EA) solubility
  solubility: 10 mg/mL
[1]; water, read-out: water solubility
  solubility: 3 mg/mL
